Assay results reported in patent US20080275058A1, “N-Substituted-1H-Quinoline-2,4-Diones, Preparation Method Thereof, And Pharmaceutical Composition Containing The Same” (KOREA RESEARCH INSTITUTE OF CHEMICAL TECHNOLOGY, priority 2005, published 2008).
Read-outs that look alike come from different tables or passages of the source.

Legend:
5-HT7 = biological target: T1, 5-HT7 (Homo sapiens, UniProt P34969); assay: Radioligand binding, 5-HT7 ([3H]LSD); details: Table 4; [3H]LSD 3 nM; read-out: Binding affinity, IC50 (nM) 5-HT7
T1 construct: purchased Euroscreen/BioSignal Packard Inc

D1 = D1 (Homo sapiens, UniProt P21728); assay: Radioligand binding, dopamine D1; details: Table 4; read-out: Binding affinity, IC50 (nM) D1
rats = assay: Methamphetamine-induced disruption of prepulse inhibition (PPI) in rats; format: in vivo, rat; details: administered 30 min before methamphetamine
Method: To assay antipsychotic properties of the compounds according to the invention, prepulse inhibition (PPI) of acoustic startle in animals was performed. Startle response was measured using SR-LAB startle chamber (San Diego Instruments, San Diego, USA). The animal enclosure was housed in a ventilated and sound-attenuated startle chamber with 60 dB ambient noise level, and consisted of a Plexiglas cylinder 40 mm in diameter on a platform, connected to a piezoelectric accelerometer which detects and transducer motion within the cylinder. Acoustic noise bursts were presented through a loudspeaker mounted 24 ? above the animal. […] Each startle session began with a 5-min acclimatization period in the chamber to 68 dB background noises. The test session consisting of the following four different trial types was carried for all experiments: a 40 ms broadband 120 dB burst (P; pulse alone trial), P preceded 100 ms earlier by a 20 ms noise burst 10 dB above background (pP; prepulse+pulse trial), a 40 ms broadband 78 dB burst (prepulse alone trial), and a no stimulus trial (background). Eight trials of each type were presented in a pseudorandom order (total32 trials) with an average interval of 15 sec. separating each trial. An extra 5 pulse-alone trials were presented at the beginning and end of each test session, but were not used in the calculation of PPI values. PPI was defined as the percent reduction in startle amplitude in the presence of prepulse compared to the amplitude in the absence of the prepulse using the following Math Equation 1. […] Differences were considered significant at P<0.05. Statistical analyses were conducted using SigmaStat software (SigmaStat, Jandel Co., San Rafael, Calif.). The data were expressed as means±SEM.

hD4.2 receptor = biological target: T2, hD4.2 receptor (Homo sapiens, UniProt P21917, DEL265-296); assay: Radioligand binding, dopamine D4 ([3H]YM-09151-2); details: Table 4; [3H]YM-09151-2 0.06 nM; read-out: Binding affinity, IC50 (nM) D4
T2 construct: purchased BioSignal Packard Inc., Montreal, Canada
T2 sequence (P21917 with tags, fused parts or gaps DEL265-296): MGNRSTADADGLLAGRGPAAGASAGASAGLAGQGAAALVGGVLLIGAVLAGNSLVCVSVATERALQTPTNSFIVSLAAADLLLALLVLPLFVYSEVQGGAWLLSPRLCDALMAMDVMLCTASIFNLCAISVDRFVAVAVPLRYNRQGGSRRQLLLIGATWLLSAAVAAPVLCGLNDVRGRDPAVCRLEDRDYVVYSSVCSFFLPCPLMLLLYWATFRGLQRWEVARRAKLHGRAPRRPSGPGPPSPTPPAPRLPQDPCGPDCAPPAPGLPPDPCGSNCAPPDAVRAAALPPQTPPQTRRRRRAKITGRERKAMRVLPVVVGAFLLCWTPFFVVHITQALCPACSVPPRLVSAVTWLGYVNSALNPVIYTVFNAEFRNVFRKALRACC
Procedure, shortened: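 Membrane competition binding with [3H]spiperone (1 nM) for hD2L and hD3, or [3H]YM-09151-2 (0.06 nM) for hD4.2, each in receptor-specific Tris-HCl pH 7.4 buffer containing Mg2+/EDTA (D3 and D4 also with K+, Ca2+; D3 with 120 mM NaCl). Compounds were tested at 7-8 concentrations in duplicate, and IC50 was derived by nonlinear regression across three assays.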

[1] = biological target: T3, Human serotonin 5-HT6 receptor (Homo sapiens, UniProt P50406); assay: [3H]LSD binding assay on cloned 5-HT6 receptor membranes; details: for binding affinity at 5-HT6 receptor labeled by [3H]LSD, in words: comment on Table 2
T3 construct: made in house; host or cells: insect Sf21 cells (baculovirus vector BacPAK8)

mice = assay: Rotarod deficit in mice; format: in vivo, mouse
Procedure, shortened: (§1)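 Compounds suspended in 3% Tween 80 were given p.o. to mice 60 min before testing. Rotarod deficit (%) was the proportion of animals falling within 1 min from a 1 inch knurled rod turning at 6 rpm, scored at 60, 90 and 120 min after dosing.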

Rotarod deficit in mice = format: in vivo, mouse; details: mouse, in vivo, po, unit printed as image, read-out: TD50 (median neurotoxic dose)
Procedure, shortened: as §1

5-HT2a = biological target: T4, 5-HT2a (Homo sapiens, UniProt P28223); assay: Radioligand binding, 5-HT2a ([3H]Ketanserin); details: Table 4; [3H]Ketanserin 1 nM; read-out: Binding affinity, IC50 (nM) 5-HT2a
T4 construct: purchased Euroscreen/BioSignal Packard Inc

[2] = Table 2, 1.87 nM [3H]LSD, 37 C, 60 min, read-out: IC50 (nM), binding affinity to the 5-HT6 receptor
[3] = Table 4, read-out: Binding affinity, IC50 (nM) 5-HT6

T3 sequence (P50406 whole entry): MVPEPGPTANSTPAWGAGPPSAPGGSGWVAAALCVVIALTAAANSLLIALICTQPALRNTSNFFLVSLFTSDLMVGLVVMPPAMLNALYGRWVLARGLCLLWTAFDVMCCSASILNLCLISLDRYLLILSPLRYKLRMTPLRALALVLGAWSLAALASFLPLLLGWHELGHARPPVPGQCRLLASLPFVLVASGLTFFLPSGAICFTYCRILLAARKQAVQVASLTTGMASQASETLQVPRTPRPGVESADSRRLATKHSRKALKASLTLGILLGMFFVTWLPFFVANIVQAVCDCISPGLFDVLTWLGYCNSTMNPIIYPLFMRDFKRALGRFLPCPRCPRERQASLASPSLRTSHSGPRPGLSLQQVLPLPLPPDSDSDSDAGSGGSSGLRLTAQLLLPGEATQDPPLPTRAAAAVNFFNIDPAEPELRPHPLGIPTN
Sequence of D1 (P21728 whole entry): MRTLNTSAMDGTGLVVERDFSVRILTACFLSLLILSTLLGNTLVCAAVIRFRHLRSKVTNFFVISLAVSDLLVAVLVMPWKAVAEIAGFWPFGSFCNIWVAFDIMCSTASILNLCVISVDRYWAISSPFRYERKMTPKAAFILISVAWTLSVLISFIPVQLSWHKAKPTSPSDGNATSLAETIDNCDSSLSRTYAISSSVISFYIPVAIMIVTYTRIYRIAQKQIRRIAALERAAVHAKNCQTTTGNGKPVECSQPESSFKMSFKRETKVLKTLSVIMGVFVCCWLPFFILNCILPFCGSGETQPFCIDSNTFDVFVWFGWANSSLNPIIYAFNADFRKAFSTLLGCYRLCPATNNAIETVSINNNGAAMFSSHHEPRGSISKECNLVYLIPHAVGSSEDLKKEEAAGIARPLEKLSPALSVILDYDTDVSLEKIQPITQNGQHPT
T1 sequence (P34969 whole entry): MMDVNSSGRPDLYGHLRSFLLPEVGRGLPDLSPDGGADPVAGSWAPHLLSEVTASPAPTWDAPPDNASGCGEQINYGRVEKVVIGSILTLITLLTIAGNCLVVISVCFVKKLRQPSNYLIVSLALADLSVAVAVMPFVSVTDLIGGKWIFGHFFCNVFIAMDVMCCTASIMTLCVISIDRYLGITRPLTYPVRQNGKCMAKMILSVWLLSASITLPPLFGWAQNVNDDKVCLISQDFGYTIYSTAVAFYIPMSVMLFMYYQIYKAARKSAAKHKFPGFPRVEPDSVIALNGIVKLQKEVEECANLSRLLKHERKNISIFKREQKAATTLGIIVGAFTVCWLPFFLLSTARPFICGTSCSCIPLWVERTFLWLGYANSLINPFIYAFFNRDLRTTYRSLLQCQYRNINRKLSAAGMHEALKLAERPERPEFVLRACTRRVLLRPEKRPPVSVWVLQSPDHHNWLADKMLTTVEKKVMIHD
T4 sequence (P28223 whole entry): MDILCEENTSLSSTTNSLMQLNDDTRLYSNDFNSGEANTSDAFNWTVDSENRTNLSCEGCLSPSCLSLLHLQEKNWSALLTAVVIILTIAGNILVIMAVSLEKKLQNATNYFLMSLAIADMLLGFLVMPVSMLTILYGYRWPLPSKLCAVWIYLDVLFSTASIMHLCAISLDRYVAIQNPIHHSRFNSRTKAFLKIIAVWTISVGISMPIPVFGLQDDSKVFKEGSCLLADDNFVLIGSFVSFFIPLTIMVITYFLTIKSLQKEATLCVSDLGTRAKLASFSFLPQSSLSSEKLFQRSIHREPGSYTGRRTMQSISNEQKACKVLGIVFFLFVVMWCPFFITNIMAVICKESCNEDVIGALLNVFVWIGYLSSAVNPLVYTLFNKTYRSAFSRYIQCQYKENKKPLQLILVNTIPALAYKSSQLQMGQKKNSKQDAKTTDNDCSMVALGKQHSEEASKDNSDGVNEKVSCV

Row | Compound | IC50 (5-HT7) [nM] | IC50 (D1) [nM] | mean startle amplitude compared with methamphetamine group (rats) | melting point [°C] | IC50 (hD4.2 receptor) [nM] | IC50 [1, 2] [nM] | IC50 [1, 3] [nM] | binding affinity at 5-HT6 receptor labeled by [3H]LSD, in words [1] | Rotarod deficit (%) (mice; 200 p.o. (dose unit not given)) | Rotarod deficit (%) (mice; 300 p.o. (dose unit not given)) | Rotarod deficit (%) (mice; 400 p.o. (dose unit not given)) | TD50 at 120 min (Rotarod deficit in mice) [mg/kg] | IC50 (5-HT2a) [nM]
1 | CC1(c2ccc(O)cc2)C(=O)c2c(N3CCNCC3)cc(Cl)cc2N(Cc2ccccc2)C1=O (racemic) [Example 14, 1-Benzyl-7-chloro-3-(4-hydroxy-phenyl)-3-methyl-5-piperazin-1-yl-1H-quinoline-2,4-dione] | 3570 | 6820 | no significant differences | 197 to 200 | > 10000 | 1 | 1 | significant affinities | 0 | 0 | 0 | > 400 | 2140
2 | COc1ccc(C2(C)C(=O)c3c(N4CCNCC4)cc(Cl)cc3N(Cc3ccccc3)C2=O)cc1 (racemic) [Example 13, 1-Benzyl-7-chloro-3-(4-methoxy-phenyl)-3-methyl-5-piperazin-1-yl-1H-quinoline-2,4-dione] | 9000 | 3590 | no significant differences | 120 to 123 | > 10000 | 0.9 | 0.9 | significant affinities | 0 | 0 | 0 | > 400 | 543
